According to PubChem BioAssay (NCI):
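Here, GI50 denotes the concentration required for 50% inhibition of growth. TGI denotes the concentration required for complete inhibition of growth.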

Assays:
Experiment in all cases: NCI-60 cell line screen, 384-well format
MOLT-4 leukemia = test system: MOLT-4 leukemia
M14 melanoma = test system: M14 melanoma
CCRF-CEM leukemia = test system: CCRF-CEM leukemia
BT-549 breast = test system: BT-549 breast
RXF 393 renal = test system: RXF 393 renal
HCC-2998 colon = test system: HCC-2998 colon
OVCAR-8 ovarian = test system: OVCAR-8 ovarian
NCI-H460 NSCLC = test system: NCI-H460 NSCLC
NCI-H522 lung = test system: NCI-H522 lung
A498 renal = test system: A498 renal
786-0 renal = test system: 786-0 renal
TK-10 renal = test system: TK-10 renal
SNB-75 CNS = test system: SNB-75 CNS
KM12 colon = test system: KM12 colon
NCI/ADR-RES ovarian = test system: NCI/ADR-RES ovarian
NCI-H23 lung = test system: NCI-H23 lung
PC-3 prostate = test system: PC-3 prostate
MDA-MB-435 melanoma = test system: MDA-MB-435 melanoma
EKVX NSCLC = test system: EKVX NSCLC
T-47D breast = test system: T-47D breast
UO-31 renal = test system: UO-31 renal
HL-60(TB) leukemia = test system: HL-60(TB) leukemia
UACC-62 melanoma = test system: UACC-62 melanoma
HOP-92 NSCLC = test system: HOP-92 NSCLC
OVCAR-5 ovarian = test system: OVCAR-5 ovarian
K-562 leukemia = test system: K-562 leukemia
HT29 colon = test system: HT29 colon
NCI-H226 lung = test system: NCI-H226 lung
RPMI-8226 leukemia = test system: RPMI-8226 leukemia
MALME-3M melanoma = test system: MALME-3M melanoma
MDA-MB-231 breast = test system: MDA-MB-231 breast
MCF7 breast = test system: MCF7 breast
SN12C renal = test system: SN12C renal
HCT-15 colon = test system: HCT-15 colon
SK-OV-3 ovarian = test system: SK-OV-3 ovarian
OVCAR-4 ovarian = test system: OVCAR-4 ovarian
DU-145 prostate = test system: DU-145 prostate
LOX IMVI melanoma = test system: LOX IMVI melanoma
SW-620 colon = test system: SW-620 colon
MDA-MB-468 breast = test system: MDA-MB-468 breast
COLO 205 colon = test system: COLO 205 colon
SNB-19 CNS = test system: SNB-19 CNS
SK-MEL-28 melanoma = test system: SK-MEL-28 melanoma
A549 NSCLC = test system: A549 NSCLC
HOP-62 NSCLC = test system: HOP-62 NSCLC
SF-268 CNS = test system: SF-268 CNS
SF-539 CNS = test system: SF-539 CNS
SK-MEL-5 melanoma = test system: SK-MEL-5 melanoma
HCT-116 colon = test system: HCT-116 colon
IGROV1 ovarian = test system: IGROV1 ovarian
NCI-H322M lung = test system: NCI-H322M lung
ACHN renal = test system: ACHN renal
HS 578T breast = test system: HS 578T breast
SF-295 CNS = test system: SF-295 CNS
U251 glioblastoma = test system: U251 glioblastoma
UACC-257 melanoma = test system: UACC-257 melanoma
OVCAR-3 ovarian = test system: OVCAR-3 ovarian
CAKI-1 renal = test system: CAKI-1 renal

With `COc1cc2cc(C(=O)CCC(=O)O)sc2cc1OC` the GI50 (MOLT-4 leukemia) was > 100 µM, the TGI (MOLT-4 leukemia) was > 100 µM and the GI50 (M14 melanoma) was > 100 µM. For the same molecule, the TGI (M14 melanoma) was > 100 µM, the GI50 (CCRF-CEM leukemia) was > 100 µM and the TGI (CCRF-CEM leukemia) was > 100 µM. The GI50 (BT-549 breast) was > 100 µM, the TGI (BT-549 breast) was > 100 µM and the GI50 (RXF 393 renal) was 25 µM. The TGI (RXF 393 renal) was > 100 µM, the GI50 (HCC-2998 colon) was > 100 µM and the TGI (HCC-2998 colon) was > 100 µM. The GI50 (OVCAR-8 ovarian) was > 100 µM, the TGI (OVCAR-8 ovarian) was > 100 µM and the GI50 (NCI-H460 NSCLC) was > 100 µM. The TGI (NCI-H460 NSCLC) was > 100 µM, the GI50 (NCI-H522 lung) was > 100 µM and the TGI (NCI-H522 lung) was > 100 µM. For the same molecule, the GI50 (A498 renal) was 33.6 µM, the TGI (A498 renal) was > 100 µM and the GI50 ([…]-0 renal) was > 100 µM. The TGI (786-0 renal) was > 100 µM, the GI50 (TK-10 renal) was > 100 µM and the TGI (TK-10 renal) was > 100 µM. For the same molecule, the GI50 (SNB-75 CNS) was > 100 µM, the TGI (SNB-75 CNS) was > 100 µM and the GI50 (KM12 colon) was > 100 µM. For the same molecule, the TGI (KM12 colon) was > 100 µM, the GI50 (NCI/ADR-RES ovarian) was > 100 µM and the TGI (NCI/ADR-RES ovarian) was > 100 µM. For the same molecule, the GI50 (NCI-H23 lung) was > 100 µM, the TGI (NCI-H23 lung) was > 100 µM and the GI50 (PC-3 prostate) was > 100 µM. The TGI (PC-3 prostate) was > 100 µM, the GI50 (MDA-MB-435 melanoma) was > 100 µM and the TGI (MDA-MB-435 melanoma) was > 100 µM. The GI50 (EKVX NSCLC) was > 100 µM, the TGI (EKVX NSCLC) was > 100 µM and the GI50 (T-47D breast) was > 100 µM. For the same molecule, the TGI (T-47D breast) was > 100 µM, the GI50 (UO-31 renal) was > 100 µM and the TGI (UO-31 renal) was > 100 µM. The GI50 (HL-60(TB) leukemia) was 22.7 µM, the TGI (HL-60(TB) leukemia) was 45.8 µM and the GI50 (UACC-62 melanoma) was > 100 µM. For the same molecule, the TGI (UACC-62 melanoma) was > 100 µM, the GI50 (HOP-92 NSCLC) was > 100 µM and the TGI (HOP-92 NSCLC) was > 100 µM. For the same molecule, the GI50 (OVCAR-5 ovarian) was > 100 µM, the TGI (OVCAR-5 ovarian) was > 100 µM and the GI50 (K-562 leukemia) was > 100 µM. For the same molecule, the TGI (K-562 leukemia) was > 100 µM, the GI50 (HT29 colon) was > 100 µM and the TGI (HT29 colon) was > 100 µM. For the same molecule, the GI50 (NCI-H226 lung) was 19.5 µM, the TGI (NCI-H226 lung) was 74.4 µM and the GI50 (RPMI-8226 leukemia) was > 100 µM. The TGI (RPMI-8226 leukemia) was > 100 µM, the GI50 (MALME-3M melanoma) was > 100 µM and the TGI (MALME-3M melanoma) was > 100 µM. For the same molecule, the GI50 (MDA-MB-231 breast) was > 100 µM, the TGI (MDA-MB-231 breast) was > 100 µM and the GI50 (MCF7 breast) was > 100 µM. For the same molecule, the TGI (MCF7 breast) was > 100 µM, the GI50 (SN12C renal) was > 100 µM and the TGI (SN12C renal) was > 100 µM. For the same molecule, the GI50 (HCT-15 colon) was > 100 µM, the TGI (HCT-15 colon) was > 100 µM and the GI50 (SK-OV-3 ovarian) was > 100 µM. The TGI (SK-OV-3 ovarian) was > 100 µM, the GI50 (OVCAR-4 ovarian) was > 100 µM and the TGI (OVCAR-4 ovarian) was > 100 µM. The GI50 (DU-145 prostate) was > 100 µM, the TGI (DU-145 prostate) was > 100 µM and the GI50 (LOX IMVI melanoma) was > 100 µM. The TGI (LOX IMVI melanoma) was > 100 µM, the GI50 (SW-620 colon) was > 100 µM and the TGI (SW-620 colon) was > 100 µM. The GI50 (MDA-MB-468 breast) was > 100 µM, the TGI (MDA-MB-468 breast) was > 100 µM and the GI50 (COLO 205 colon) was > 100 µM. For the same molecule, the TGI (COLO 205 colon) was > 100 µM, the GI50 (SNB-19 CNS) was > 100 µM and the TGI (SNB-19 CNS) was > 100 µM. The GI50 (SK-MEL-28 melanoma) was > 100 µM, the TGI (SK-MEL-28 melanoma) was > 100 µM and the GI50 (A549 NSCLC) was > 100 µM. The TGI (A549 NSCLC) was > 100 µM, the GI50 (HOP-62 NSCLC) was > 100 µM and the TGI (HOP-62 NSCLC) was > 100 µM. For the same molecule, the GI50 (SF-268 CNS) was > 100 µM, the TGI (SF-268 CNS) was > 100 µM and the GI50 (SF-539 CNS) was > 100 µM. For the same molecule, the TGI (SF-539 CNS) was > 100 µM, the GI50 (SK-MEL-5 melanoma) was > 100 µM and the TGI (SK-MEL-5 melanoma) was > 100 µM. For the same molecule, the GI50 (HCT-116 colon) was > 100 µM, the TGI (HCT-116 colon) was > 100 µM and the GI50 (IGROV1 ovarian) was > 100 µM. For the same molecule, the TGI (IGROV1 ovarian) was > 100 µM, the GI50 (NCI-H322M lung) was > 100 µM and the TGI (NCI-H322M lung) was > 100 µM. The GI50 (ACHN renal) was > 100 µM, the TGI (ACHN renal) was > 100 µM and the GI50 (HS 578T breast) was > 100 µM. The TGI (HS 578T breast) was > 100 µM, the GI50 (SF-295 CNS) was > 100 µM and the TGI (SF-295 CNS) was > 100 µM. The GI50 (U251 glioblastoma) was > 100 µM, the TGI (U251 glioblastoma) was > 100 µM and the GI50 (UACC-257 melanoma) was > 100 µM. For the same molecule, the TGI (UACC-257 melanoma) was > 100 µM, the GI50 (OVCAR-3 ovarian) was > 100 µM and the TGI (OVCAR-3 ovarian) was > 100 µM. The GI50 (CAKI-1 renal) was > 100 µM and the TGI (CAKI-1 renal) was > 100 µM.
